Patent US8846698B2, “Pyrrolo[2,3-d]pyrimidine tropomysin-related kinase inhibitors” (Pfizer Limited, priority 2011, dated 2014)

Molecular target: TRKA (Homo sapiens (Human), UniProt P04629)
Test: Isolated TRK enzyme assay (HTRF KinEASE-TK), TRKA
Assay type: biochemical
Details: read-out: Trka enzyme (IC50)

TRKA, sequence (P04629 441-796): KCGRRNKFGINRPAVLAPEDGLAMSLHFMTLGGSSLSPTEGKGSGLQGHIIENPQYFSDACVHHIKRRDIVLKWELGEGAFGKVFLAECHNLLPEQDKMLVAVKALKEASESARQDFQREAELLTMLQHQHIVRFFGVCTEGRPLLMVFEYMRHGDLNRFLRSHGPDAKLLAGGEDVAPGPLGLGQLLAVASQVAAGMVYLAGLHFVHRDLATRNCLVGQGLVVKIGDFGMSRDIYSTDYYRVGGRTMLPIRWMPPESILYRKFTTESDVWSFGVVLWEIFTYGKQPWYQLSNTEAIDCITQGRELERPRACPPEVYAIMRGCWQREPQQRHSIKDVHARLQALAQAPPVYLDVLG

Structure (SMILES)	IC50
CC(C)n1cc(C(=O)c2cncc(N(C)C(=O)Cc3ccc(C#N)cc3)c2)c2cncnc21 [Example 298, 2-(4-cyanophenyl)-N-{5-[(7-isopropyl-7H-pyrrolo[2,3-d]pyrimidin-5-yl)carbonyl]pyridin-3-yl}-N-methylacetamide]	1.46 µM
O=C(Cc1ccc(Cl)cc1)Nc1cncc(C(=O)c2cn(C3(CO)COC3)c3ncncc23)c1 [Example 299, 2-(4-Chloro-phenyl)-N-{5-[7-(3-hydroxymethyl-oxetan-3-yl)-7H-pyrrolo[2,3-d]pyrimidine-5-carbonyl]-pyridin-3-yl}-acetamide]	0.539 µM
O=C(Cc1ccc(C(F)(F)F)cc1)Nc1cncc(C(=O)c2cn(C3(CO)COC3)c3ncncc23)c1 [Example 300, N-{5-[7-(3-Hydroxymethyl-oxetan-3-yl)-7H-pyrrolo[2,3-d]pyrimidine-5-carbonyl]-pyridin-3-yl}-2-(4-trifluoromethyl-phenyl)-acetamide]	0.0522 µM
O=C(Cc1ccc(Cl)cn1)Nc1cncc(C(=O)c2cn(C3(CO)COC3)c3ncncc23)c1 [Example 301, 2-(5-chloropyridin-2-yl)-N-[5-({7-[3-(hydroxymethyl)oxetan-3-yl]-7H-pyrrolo[2,3-d]pyrimidin-5-yl}carbonyl)pyridin-3-yl]acetamide]	0.428 µM
O=C(Cn1ccc(C(F)(F)F)n1)Nc1cncc(C(=O)c2cn(C3(CO)COC3)c3ncncc23)c1 [Example 302, N-[5-({7-[3-(hydroxymethyl)oxetan-3-yl]-7H-pyrrolo[2,3-d]pyrimidin-5-yl}carbonyl)pyridin-3-yl]-2-[3-(trifluoromethyl)-1H-pyrazol-1-yl]acetamide]	0.156 µM
NC(=O)Cn1cc(C(=O)c2cncc(NC(=O)Cc3ccc(Cl)cc3)c2)c2cncnc21 [Example 303, N-(5-{[7-(2-amino-2-oxoethyl)-7H-pyrrolo[2,3-d]pyrimidin-5-yl]carbonyl}pyridin-3-yl)-2-(4-chlorophenyl)acetamide]	1.22 µM
CN(C)C(=O)Cn1cc(C(=O)c2cncc(NC(=O)Cc3ccc(Cl)cc3)c2)c2cncnc21 [Example 304, 2-{5-[(5-{[(4-chlorophenyl)acetyl]amino}pyridin-3-yl)carbonyl]-7H-pyrrolo[2,3-d]pyrimidin-7-yl}-N,N-dimethylacetamide]	3.9 µM
CNC(=O)Cn1cc(C(=O)c2cncc(NC(=O)Cc3ccc(Cl)cc3)c2)c2cncnc21 [Example 305, 2-(4-chlorophenyl)-N-[5-({7-[2-(methylamino)-2-oxoethyl]-7H-pyrrolo[2,3-d]pyrimidin-5-yl}carbonyl)pyridin-3-yl]acetamide]	2.64 µM
O=C(Cc1ccc(Cl)cc1)Nc1cncc(C(=O)c2c[nH]c3ncncc23)c1 [Example 308, 2-(4-Chlorophenyl)-N-[5-(7H-pyrrolo[2,3-d]pyrimidin-5-ylcarbonyl)pyridin-3-yl]acetamide]	0.592 µM
CC1(n2cc(C(=O)c3cncc(NC(=O)Cc4ccc(Cl)cc4)c3)c3cncnc32)COC1 [Example 309, 2-(4-chlorophenyl)-N-(5-{[7-(3-methyloxetan-3-yl)-7H-pyrrolo[2,3-d]pyrimidin-5-yl]carbonyl}pyridin-3-yl)acetamide]	0.0539 µM
CC1(n2cc(C(=O)c3cncc(NC(=O)Cc4ccc(Cl)cn4)c3)c3cncnc32)COC1 [Example 310, 2-(5-chloropyridin-2-yl)-N-(5-{[7-(3-methyloxetan-3-yl)-7H-pyrrolo[2,3-d]pyrimidin-5-yl]carbonyl}pyridin-3-yl)acetamide]	0.0984 µM
CC1(n2cc(C(=O)c3cncc(NC(=O)Cn4ccc(C(F)(F)F)n4)c3)c3cncnc32)COC1 [Example 311, N-(5-{[7-(3-methyloxetan-3-yl)-7H-pyrrolo[2,3-d]pyrimidin-5-yl]carbonyl}pyridin-3-yl)-2-[3-(trifluoromethyl)-1H-pyrazol-1-yl]acetamide]	0.238 µM
CC1(n2cc(C(=O)c3cncc(NC(=O)Cn4cc(C(F)(F)F)nn4)c3)c3cncnc32)COC1 [Example 312, N-(5-{[7-(3-methyloxetan-3-yl)-7H-pyrrolo[2,3-d]pyrimidin-5-yl]carbonyl}pyridin-3-yl)-2-[4-(trifluoromethyl)-1H-1,2,3-triazol-1-yl]acetamide]	0.166 µM
CS(=O)(=O)Cn1cc(C(=O)c2cncc(NC(=O)Cc3ccc(Cl)cc3)c2)c2cncnc21 [Example 314, 2-(4-chlorophenyl)-N-[5-({7-[(methylsulfonyl)methyl]-7H-pyrrolo[2,3-d]pyrimidin-5-yl}carbonyl)pyridin-3-yl]acetamide]	0.835 µM

The next lines start with the values.

IC50	Structure (SMILES)
0.0391 µM	CC(C)n1cc(C(=O)c2cncc(NC(=O)Cc3cnn(C4CC4)c3C(F)(F)F)c2)c2cncnc21 [Example 315, 2-(1-Cyclopropyl-5-trifluoromethyl-1H-pyrazol-4-yl)-N-[5-(7-isopropyl-7H-pyrrolo[2,3-d]pyrimidine-5-carbonyl)-pyridin-3-yl]-acetamide]
0.188 µM	Cn1cc(C(=O)c2cncc(NC(=O)Cc3ccc(Cl)cc3)c2)c2cncnc21 [Example 319, 2-(4-chlorophenyl)-N-{5-[(7-methyl-7H-pyrrolo[2,3-d]pyrimidin-5-yl)carbonyl]pyridin-3-yl}acetamide]
3.1 µM	Cn1cc(C(=O)c2cncc(NC(=O)CCc3ccc(Cl)cc3)c2)c2cncnc21 [Example 320, 3-(4-chlorophenyl)-N-{5-[(7-methyl-7H-pyrrolo[2,3-d]pyrimidin-5-yl)carbonyl]pyridin-3-yl}propanamide]
3.1 µM	Cc1cccc(CCC(=O)Nc2cncc(C(=O)c3cn(C)c4ncncc34)c2)c1 [Example 321, 3-(3-methylphenyl)-N-{5-[(7-methyl-7H-pyrrolo[2,3-d]pyrimidin-5-yl)carbonyl]pyridin-3-yl}propanamide]
9.8 µM	Cn1cc(C(=O)c2cncc(NC(=O)CCc3cccnc3)c2)c2cncnc21 [Example 322, N-{5-[(7-methyl-7H-pyrrolo[2,3-d]pyrimidin-5-yl)carbonyl]pyridin-3-yl}-3-(pyridin-3-yl)propanamide]
3.1 µM	Cn1cc(C(=O)c2cncc(NC(=O)CCc3cccc(Cl)c3)c2)c2cncnc21 [Example 323, 3-(3-chlorophenyl)-N-{5-[(7-methyl-7H-pyrrolo[2,3-d]pyrimidin-5-yl)carbonyl]pyridin-3-yl}propanamide]
3.1 µM	Cn1cc(C(=O)c2cncc(NC(=O)CCc3cccc(F)c3)c2)c2cncnc21 [Example 324, 3-(3-fluorophenyl)-N-{5-[(7-methyl-7H-pyrrolo[2,3-d]pyrimidin-5-yl)carbonyl]pyridin-3-yl}propanamide]
0.111 µM	Cn1cc(C(=O)c2cncc(NC(=O)COc3ccccc3OC(F)(F)F)c2)c2cncnc21 [Example 325, N-{5-[(7-methyl-7H-pyrrolo[2,3-d]pyrimidin-5-yl)carbonyl]pyridin-3-yl}-2-[2-(trifluoromethoxy)phenoxy]acetamide]
2.98 µM	Cc1ccccc1CCC(=O)Nc1cncc(C(=O)c2cn(C)c3ncncc23)c1 [Example 326, 3-(2-methylphenyl)-N-{5-[(7-methyl-7H-pyrrolo[2,3-d]pyrimidin-5-yl)carbonyl]pyridin-3-yl}propanamide]
3.1 µM	Cn1cc(C(=O)c2cncc(NC(=O)CCc3ccccc3F)c2)c2cncnc21 [Example 327, 3-(2-fluorophenyl)-N-{5-[(7-methyl-7H-pyrrolo[2,3-d]pyrimidin-5-yl)carbonyl]pyridin-3-yl}propanamide]
3.1 µM	Cn1cc(C(=O)c2cncc(NC(=O)CCc3ccc(F)cc3)c2)c2cncnc21 [Example 328, 3-(4-fluorophenyl)-N-{5-[(7-methyl-7H-pyrrolo[2,3-d]pyrimidin-5-yl)carbonyl]pyridin-3-yl}propanamide]
9.81 µM	Cn1cc(C(=O)c2cncc(NC(=O)CCc3ccccc3)c2)c2cncnc21 [Example 329, N-{5-[(7-methyl-7H-pyrrolo[2,3-d]pyrimidin-5-yl)carbonyl]pyridin-3-yl}-3-phenylpropanamide]
3.1 µM	Cc1ccc(CCC(=O)Nc2cncc(C(=O)c3cn(C)c4ncncc34)c2)cc1 [Example 330, 3-(4-methylphenyl)-N-{5-[(7-methyl-7H-pyrrolo[2,3-d]pyrimidin-5-yl)carbonyl]pyridin-3-yl}propanamide]
9.81 µM	Cn1cc(C(=O)c2cncc(NC(=O)Cc3ccc(NS(=O)(=O)C(F)(F)F)cc3)c2)c2cncnc21 [Example 331, N-{5-[(7-methyl-7H-pyrrolo[2,3-d]pyrimidin-5-yl)carbonyl]pyridin-3-yl}-2-(4-{[(trifluoromethyl)sulfonyl]amino}phenyl)acetamide]
2.18 µM	Cn1cc(C(=O)c2cncc(NC(=O)COc3ccccc3)c2)c2cncnc21 [Example 332, N-{5-[(7-methyl-7H-pyrrolo[2,3-d]pyrimidin-5-yl)carbonyl]pyridin-3-yl}-2-phenoxyacetamide]
9.8 µM	COCc1ccc(CC(=O)Nc2cncc(C(=O)c3cn(C)c4ncncc34)c2)cc1 [Example 333, 2-[4-(methoxymethyl)phenyl]-N-{5-[(7-methyl-7H-pyrrolo[2,3-d]pyrimidin-5-yl)carbonyl]pyridin-3-yl}acetamide]
1.55 µM	Cn1cc(C(=O)c2cncc(NC(=O)COc3ccc(F)cc3)c2)c2cncnc21 [Example 334, 2-(4-fluorophenoxy)-N-{5-[(7-methyl-7H-pyrrolo[2,3-d]pyrimidin-5-yl)carbonyl]pyridin-3-yl}acetamide]
9.8 µM	Cn1cc(C(=O)c2cncc(NC(=O)C3(c4ccccc4)CC3)c2)c2cncnc21 [Example 336, N-{5-[(7-methyl-7H-pyrrolo[2,3-d]pyrimidin-5-yl)carbonyl]pyridin-3-yl}-1-phenylcyclopropanecarboxamide]
4.28 µM	Cn1cc(C(=O)c2cncc(NC(=O)C3Cc4ccccc4C3)c2)c2cncnc21 [Example 337, N-{5-[(7-methyl-7H-pyrrolo[2,3-d]pyrimidin-5-yl)carbonyl]pyridin-3-yl}indane-2-carboxamide]
2.73 µM	C[C@@H](C(=O)Nc1cncc(C(=O)c2cn(C)c3ncncc23)c1)c1ccccc1 [Example 338, (2R)—N-{5-[(7-methyl-7H-pyrrolo[2,3-d]pyrimidin-5-yl)carbonyl]pyridin-3-yl}-2-phenylpropanamide]
